Source: publication PMC12036814 (Angewandte Chemie (International Ed. in English), 2025)
Read-outs that look alike come from different tables or passages of the source.

Assays:
[1] = test system: periodontal ligament cell line (PDL‐hTERT); assay: Whole proteome analysis and pathway analysis of treated PDL-hTERT cells; assay type: cell-based, human; set-up: dose or concentration left out as unconfirmed; details: […] μM, 3 days, versus vehicle
SCARB1 = molecular target: T1, SCARB1 (Homo sapiens, UniProt Q8WTV0); assay: Microscale thermophoresis (MST) binding; details: aggregation/precipitation at high compound concentrations
T1 construct: purchased Hölzel Biotech SC1-H82E5
T1 sequence (Q8WTV0 1-552): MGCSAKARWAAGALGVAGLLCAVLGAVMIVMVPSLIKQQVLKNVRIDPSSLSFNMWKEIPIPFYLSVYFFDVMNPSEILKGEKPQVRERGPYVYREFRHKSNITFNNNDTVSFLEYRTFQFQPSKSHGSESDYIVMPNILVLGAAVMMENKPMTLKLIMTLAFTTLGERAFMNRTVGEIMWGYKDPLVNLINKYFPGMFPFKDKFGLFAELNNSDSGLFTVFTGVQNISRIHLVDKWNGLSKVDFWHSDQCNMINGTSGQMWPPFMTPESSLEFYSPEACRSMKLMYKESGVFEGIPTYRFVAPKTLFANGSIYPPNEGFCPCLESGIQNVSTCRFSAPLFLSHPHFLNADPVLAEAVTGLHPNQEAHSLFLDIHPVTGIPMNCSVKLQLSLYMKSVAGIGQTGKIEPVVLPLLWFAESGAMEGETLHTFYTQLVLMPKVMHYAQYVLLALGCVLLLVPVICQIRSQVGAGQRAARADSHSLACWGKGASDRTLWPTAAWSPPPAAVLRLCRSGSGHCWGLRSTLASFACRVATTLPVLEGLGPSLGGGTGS
Protocol: reaction was terminated by addition of 800 μL EtOAc+0.5% AcOH, 300 μL H2O and 100 μL internal standard (13,14-dihydro-15-ketoprostaglandin -d4, 300 pmol/sample, Cayman Chemical, Ann Arbor, USA, Cat# 10010606). Of the organic phase 600 μL was transferred into a fresh Eppendorf tube and the solvent removed in a SpeedVac. The residue was dissolved in 100 μL acetonitrile/ H2O (1:1) and measured with LC-MS/MS. Gradient: Solvent A = H2O + 0.1% formic acid, solvent B = acetonitrile + 0.5% formic acid, flow rate = 0 .4 mL/min, run length 6 min, gradient = 0 min 30% B, 1 min 30% B, 2 min 31.5% B, 2.1 min 95% B, 4 min 95% B, 4.1 min 30% B, 6 min 30% B. MS settings: Capillary = 3.0 kV, sampling cone = […], extraction cone […], source temperature = 100 °C, desolvat ion temperature = 350 °C, cone gas flow = 50.0 L/h, desolvation gas flow = 650.0 L/h, scan time = 0.250 s, inter-scan time = 0.020 s, mass range = 100 -800 Da. Masses of 15 -ketoprostaglandin (349.2 Da, collision energy = 21.0 eV), 13,14 -dihydro-15-ketoprostaglandin (351.2 Da, collision energy = 18.0 eV) and 13,14-dihydro-15-ketoprostaglandin (355.2 Da, collision energy = 10.0 eV) were set for MRM. The areas under the curve (AUC) were used to quantify 15 -keto-PGE2 and 13,14 -dihydro-15-keto-PGE2 levels by determining peak areas in relation to internal standard […]. The experiment was […]
Microscale thermophoresis (MST) was performed as follows: Monolith His -Tag Labeling Kit RED -tris-NTA 2nd Generation (NanoTemper Technologies, Munich, Germany, Cat# MO -L018) was used for KD determination as recommended by the purchaser. Briefly, SCARB1 ( Hölzel Biotech, Cologne, Germany, Cat# SC1-H82E5) concentration (50 nM) was adjusted in assay buffer and labelled by the RED -tris-NTA dye (100 nM). This mixture was added to compound dilution series (c = 1 mM to 30 nM) and measured using Monolith NT.115 (NanoTemper Technologies, Munich, Germany ). The experiment was performed once and analysed with the MO Affinity Analysis software (NanoTemper).
NUDT1 target validation efforts:
Recombinant NUDT1 expression & purification […]

[2] = test system: IDH2 mRNA in PDL-hTERT cells; assay: Quantitative PCR of IDH2 mRNA; assay type: cell-based, human; set-up: dose or concentration left out as unconfirmed; details: […] µM, GAPDH housekeeper
NUDT1 = NUDT1 (Homo sapiens, UniProt P36639); assay: Thermal protein profiling (TPP) in intact HEK293 cells; assay type: cell-based; set-up: endogenous in cells; host or cells: HEK293; details: 1 h
Protocol: incubated in a thermoshaker (600 rpm, 16 h, 37 °C). The digest was stopped by adding 10 μL formic
acid (FA) and vortexing followed by centrifugation (12,000 ×g, 3 min, room temperature). 50 mg
SepPak C18 columns (Waters, Milford, USA, Cat# WAT054960) were equilibrated by gravity flow two
times with 1 mL acetonitrile and three times with 1 mL aqueous 0.1% trifluoroacetic acid (TFA) solution.
Subsequently, the samples were loaded by gravity flow, washed three times with 1 mL aqueous 0.1%
TFA solution and once with 0.5 mL aqueous 0.5% formic acid (F A) solution. Elution of peptides into
new 2.0 mL Protein LoBind Eppendorf tubes was performed by two times addition of 250 μL elution
buffer (80% acetonitrile, 0.5% FA) by gravity flow followed by 250 μL elution buffer by vacuum flow
until all liquid was eluted from the column. The eluates were lyophilized. Before MS measurement the
(brief centrifugation after each step).
Thermal protein profiling (TPP)
The experiment was performed similarly to TPP-TR experiments described by Franken et al. with minor
modifications.5 HEK293 cells were grown in 8 T175 flasks to approx. 80-90% confluency. Per replicate
volume of 0.1 N HCl as vehicle control. Per condition two replicates were used, leading to a total of 8
T175 flasks. The cells were washed with PBS, detached with accutase, the two flask per replicate […]

For `O=C(O)c1cn(C2CC2)c2cc(N3CCNCC3)c(F)cc2c1=O` [Ciprofloxacin], the “regulation of ETC complex I and IV subunits” value [1] was “significant down‐regulation of complex I (blue) and complex IV (green) subunits of the ETC”, the “binding to SCARB1” value (SCARB1) was “no binding affinity could be determined” and the “IDH2 mRNA levels versus vehicle control” value [2] was “not significantly changed”. For the same compound, the ΔTm at 70 µM (NUDT1; read-out: ΔTm Rep. 1) was 3.29 °C and the ΔTm at 70 µM (NUDT1; read-out: ΔTm Rep. 2) was 3.4 °C.
